Test results from patent US20040171954A1, “Methods for determining whether to provide an inhibitor of sympathetic nervous system activity to a human being suffering from an autoimmune disease or fibryomyalgia” (CNS-Rheumatology, Inc., priority 2003, published 2004).
Where two headings read alike, the source gives them in different places.

Tests used:
[1] = tested on: patient one suffering from Ankylosing Spondylitis; assay: Clinical course of a patient with ankylosing spondylitis (Example 7); assay type: in vivo, human; conditions: for control of the disease by prior therapy: before pramipexole
[2] = tested on: sympathetic nervous system activity in the heart; conditions: for sympathetic / tension / total power / vagus: one patient on pramipexole plus steroid therapy; for sympathetic (heart rate variability) / tension (heart rate variability) / total power (heart rate variability) / vagus (heart rate variability): one patient
Excerpt: This system is commercially available as The OmegaWave Sport Technology System, which is sold by OmegaWave Sport, Inc., 2732 Sunnyview Lane, Eugene, Oreg. 97405, USA. […] FIG. 4 illustrates one embodiment of components of the system and various electrode/sensor placements on the human body. System 10 is adapted to perform the following tests on a human body: Heart Rate Variability; Differential electrocardiogram (ECG); Omega Wave; Jump; and Stimulus Response. In the practice of the present invention, system 10 is used to perform the Heart Rate Variability test.
Referring to FIG. 7, a diagram that illustrates the steps of conducting a heart rate variability test in accordance with the present invention is shown. In step 110, a person receiving a test (PRT) positions him or herself for sensor attachment. In step 112, the sensors are attached. In step 114, a user selects the desired heart rate variability test from CD 50. In step 115, ID 40 is initialized for appropriate data sensing and data propagation by CD 50. In step 116, the PRT is instructed to attain or maintain a state of rest. In step 117, the machine executable steps of the selected test(s) is/are carried out by CD 50. […] A description of machine executable steps of the heart rate variability test selected in step 114 of FIG. 7 is now presented. Processing cardiac signals as discussed below permits quantitative and qualitative analysis of the functional state of cardiac activity.
In this representative heart rate variability test, four electrode sensors are preferably utilized and they are preferably placed one each on the wrists and ankles. One sensor electrode is a ground and the other three collect standard ECG data or the like. Alternative sensor placement may be utilized. The heart rate variability test is based on the registration of cardiac contractions of standard electrocardiogram (ECG) readings over the course of a fixed span of time. The test records the change of period length (in seconds) between each cardiac contraction which is the time between ECG spikes, which are designated with the letter R.
After initialization of ID 40, cardiac muscle electrical activity is recorded for a fixed time period, e.g., 128 seconds (step 152). A fixed number of consecutive heart beat intervals (RR intervals), e.g., 100, is selected and analyzed (step 154). The intervals are processed in this exemplary method using a fast Fourier transformation to achieve frequency spectrum analysis (step 156) and the density of interval frequencies is plotted in a frequency spectrum-gram (step 158). Frequency spectrum analysis is known in the art as described supra. The following frequency ranges are preferably plotted: high frequency=0.15 to 0.4 Hz; low frequency=0.04 to 0.15 Hz; and very low frequency=0.004 to 0.04 Hz.
In step 172, various indices for cardiovascular system performance are calculated based on frequency spectrum and other data and these include: Vagus (parasympathetic) Regulation (VR); Humoral Regulation (HR); Sympathetic Regulation (SR); Tension (Stress) Index; Share of aperiodic influences; Standard deviation; and Frequency of Cardiac Contractions (FCC). Calculation of these or related indices is known in the art. (See, e.g., Baevskiy, R. M., et al., Mathematical Analysis of Changes in Heart Rate Rhythm Under Stress, Moscow Science, 1984). These indices may be interpreted to generate textual conclusions about the functional state of cardiac activity.
The OmegaWave Sport Technology System, described herein and in published United States patent application serial number U.S. 2002/0045835 A1, provides three values that can be used singly, or in combination, to determine whether sympathetic nervous system activity predominates over parasympathetic nervous system activity in the heart: activity of the vagus (parasympathetic) regulation mechanisms; activity of the sympathetic regulation mechanisms; and Tension index.

[3] = tested on: patient two suffering from autoimmune hemolytic anemia with leukopenia; conditions: one patient
Excerpt: Patient two suffered from autoimmune hemolytic anemia. The patient had leukopenia (reduced white blood cell (WBC) count; 2,300 WBC). Steroids were recommended, but the patient refused. The patient's heart rate variability was monitored using system 10: vagus, 0.17; sympathetic, 52; tension, 199; total power, 201. […] Therefore, pramipexole was prescribed for administration at night to address sympathetic overactivity. The patient's symptoms improved, and their WBC count began to increase (2400). These changes correlated with a reduction in excessive sympathetic nervous system activity: vagus, 0.22; sympathetic, 45; tension, 147; total power, 294.
The patient discontinued pramipexole against medical advice. WBC decreased to 2100 as excessive sympathetic nervous system activity increased: vagus, 0.20; sympathetic, 70; tension, 236; total power, 280.

[4] = tested on: patient suffering from severe, previously untreatable, psoriatic arthropathy; assay: Clinical course of a patient with severe psoriatic arthropathy (Example 3); assay type: in vivo, human; conditions: one patient
Excerpt: The following heart rate variability measurements were made in the patient using system 10: vagus, 0.16; sympathetic, 54; tension, 220; total power, 283.

[5] = after the patient discontinued pramipexole
[6] = pramipexole 2.0 mg per day at bedtime, with etanercept
[7] = pramipexole increased over 4 weeks to 4.5 mg per day at bedtime

C[C@]12C=CC(=O)C=C1CC[C@@H]1[C@@H]2C(=O)C[C@@]2(C)[C@H]1CC[C@]2(O)C(=O)CO [prednisone]
adverse outcome of excessive prednisone ([1]; prednisone 40 mg per day): avascular necrosis of both hips and hip replacement

CCCN[C@H]1CCc2nc(N)sc2C1 [pramipexole]
sympathetic ([2]; Dec. 11, 2001): 61 | tension ([2]; Dec. 11, 2001): 374 | total power ([2]; Dec. 11, 2001): 102 | vagus ([2]; Dec. 11, 2001): .10 | sympathetic ([2]; Feb. 5, 2002): 87 | tension ([2]; Feb. 5, 2002): 569 | total power ([2]; Feb. 5, 2002): 128 | vagus ([2]; Feb. 5, 2002): .09 | sympathetic ([2]; Nov. 14, 2001): 93 | tension ([2]; Nov. 14, 2001): 1278 | total power ([2]; Nov. 14, 2001): 24 | vagus ([2]; Nov. 14, 2001): .05 | sympathetic ([2]; Oct. 10, 2001): 93 | tension ([2]; Oct. 10, 2001): 1444 | total power ([2]; Oct. 10, 2001): 29 | vagus ([2]; Oct. 10, 2001): .05 | sympathetic (heart rate variability) [2, 5]: 70 | tension (heart rate variability) [2, 5]: 236 | total power (heart rate variability) [2, 5]: 280 | vagus (heart rate variability) [2, 5]: 0.20 | sympathetic (heart rate variability) ([2]; on pramipexole at night): 45 | tension (heart rate variability) ([2]; on pramipexole at night): 147 | total power (heart rate variability) ([2]; on pramipexole at night): 294 | vagus (heart rate variability) ([2]; on pramipexole at night): 0.22 | sympathetic (heart rate variability) [2, 6]: 54 | tension (heart rate variability) [2, 6]: 220 | total power (heart rate variability) [2, 6]: 283 | vagus (heart rate variability) [2, 6]: 0.16 | sympathetic (heart rate variability) [2, 7]: 43 | total power (heart rate variability) [2, 7]: 319 | vagus (heart rate variability) [2, 7]: 0.19 | tension (heart rate variability) ([2]; pramipexole increased over 4 weeks to 4.5 mg per day at bedtime, now normal): 145 | WBC [3, 5]: 2100 | WBC count ([3]; on pramipexole at night, 2,300 before treatment): 2400

CN(Cc1cnc2nc(N)nc(N)c2n1)c1ccc(C(=O)N[C@@H](CCC(=O)O)C(=O)O)cc1 [methotrexate]
control of the disease by prior therapy [1]: failed to control

etanercept
response of chronic joint flares and synovial thickening to treatment ([4]; fifteen years, before pramipexole): resistant | effectiveness of etanercept after pramipexole was added ([4]; over six weeks, pramipexole 2.0 mg per day at bedtime): became more effective | control of the disease by prior therapy [1]: failed to control
